Earlier results, collected in patent publication US20080057125A1, “STABLE TABLET DOSAGE FORMS OF PROTON PUMP INHIBITORS” (priority 2005, published 2008).
Where two headings read alike, the source gives them in different places.

Legend:
[1] = 25° C.
[2] = from commercially marketed dosage forms

With `Cc1c(OCC(F)(F)F)ccnc1C[S+]([O-])c1nc2ccccc2[nH]1` (stereo not shown) [Lansoprazole, 2-[[[3-methyl-4-(2,2,2-trifluoroethoxy)-2-pyridyl]methyl]sulfinyl]benzimidazole] as the molecule, how does the “degradation half-life in aqueous solution” value ([1]; pH 5.0) read?
The value was “approximately 0.5 hour”.

And the “degradation half-life in aqueous solution” value ([1]; pH 7.0)?
Its value is “approximately 18 hours”.

And the percent bioavailability [2]?
Its percent bioavailability is 80-85%.

Which percent bioavailability [2] does the source give for `COc1ccc2[nH]c([S+]([O-])Cc3ncc(C)c(OC)c3C)nc2c1` (stereo not shown) [omeprazole, 2-[2-(3,5-dimethyl-4-methoxy)-pyridylmethylsulfinyl]-(5-methoxy)-benzimidazole] here?
Its percent bioavailability is 30-40%.
